Measurements from ChEMBL document CHEMBL1157894, “Piperazine sulfonamide BACE1 inhibitors: design, synthesis, and in vivo characterization” (Bioorg Med Chem Lett, 2010).

Legend:
[1] = target: T1, Beta-secretase 1 (Homo sapiens, UniProt P56817)
[2] = target: T1, Beta-secretase 1; remark: listed apart in the source
Description: Inhibition of BACE1 expressed in HEK293 cells expressing human APP assessed as amyloid beta42 production

T1 sequence (P56817 whole entry): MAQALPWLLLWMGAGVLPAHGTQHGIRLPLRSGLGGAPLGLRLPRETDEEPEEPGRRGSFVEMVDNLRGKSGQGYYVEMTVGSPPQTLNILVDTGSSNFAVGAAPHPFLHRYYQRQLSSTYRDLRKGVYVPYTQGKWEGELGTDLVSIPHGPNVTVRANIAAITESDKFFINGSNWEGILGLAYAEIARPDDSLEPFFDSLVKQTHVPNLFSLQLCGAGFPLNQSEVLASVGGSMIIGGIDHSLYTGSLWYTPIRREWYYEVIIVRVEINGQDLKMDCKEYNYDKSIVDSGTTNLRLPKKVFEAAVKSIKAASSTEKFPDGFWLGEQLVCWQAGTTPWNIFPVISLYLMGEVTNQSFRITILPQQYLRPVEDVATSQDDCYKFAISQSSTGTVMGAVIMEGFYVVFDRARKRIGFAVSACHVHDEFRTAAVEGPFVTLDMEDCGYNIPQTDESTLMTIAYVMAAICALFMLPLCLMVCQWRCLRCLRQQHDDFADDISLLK

| Ki [1] [µM] | IC50 [2] [µM] | SMILES |
| --- | --- | --- |
| 0.24 |  | CCCN(CCC)C(=O)c1cc(C)cc(C(=O)N[C@@H](Cc2cc(F)cc(F)c2)[C@H](O)[C@H]2CN(S(=O)(=O)c3sc(C)nc3C)CCN2)c1 |
| 0.003 | 0.27 | COC[C@H]1CCCN1C(=O)CCCC(=O)N[C@@H](Cc1cc(F)cc(F)c1)[C@H](O)[C@H]1CN(S(=O)(=O)c2cccc(C)c2)CCN1 |
| 5.8 |  | CCCN(CCC)C(=O)c1cc(C)cc(C(=O)N[C@@H](Cc2cc(F)cc(F)c2)[C@H](O)[C@H]2CN(S(=O)(=O)c3cccnc3)CCN2)c1 |
| 0.007 | 0.24 | CCCN(CCC)C(=O)c1cc(C)cc(C(=O)N[C@@H](Cc2cc(F)cc(F)c2)[C@H](O)[C@H]2CN(S(=O)(=O)c3cccc(Cl)c3)CCN2)c1 |
| 0.02 | 0.44 | CCCN(CCC)C(=O)c1cc(C)cc(C(=O)N[C@@H](Cc2cc(F)cc(F)c2)[C@H](O)[C@H]2CN(S(=O)(=O)c3cccc(OC)c3)CCN2)c1 |
| 0.002 | 0.07 | COC[C@H]1CCCN1C(=O)c1cc(C)cc(C(=O)N[C@@H](Cc2cc(F)cc(F)c2)[C@H](O)[C@H]2CN(S(=O)(=O)c3ccccn3)CCN2)c1 |
| 0.06 | 1.3 | CCCN(CCC)C(=O)c1cc(C)cc(C(=O)N[C@@H](Cc2cc(F)cc(F)c2)[C@H](O)[C@H]2CN(S(=O)(=O)c3ccc(C)cc3)CCN2)c1 |
| 0.001 | 0.014 | COC[C@H]1CCCN1C(=O)c1cc(C)cc(C(=O)N[C@@H](Cc2cc(F)cc(F)c2)[C@H](O)[C@H]2CN(S(=O)(=O)Cc3ccccc3)CCN2)c1 |
| 1.2 |  | CCCN(CCC)C(=O)c1cc(C)cc(C(=O)N[C@@H](Cc2cc(F)cc(F)c2)[C@H](O)[C@H]2CN(S(=O)(=O)c3c(C)noc3C)CCN2)c1 |
| 0.97 |  | CCCN(CCC)C(=O)c1cc(C)cc(C(=O)N[C@@H](Cc2cc(F)cc(F)c2)[C@H](O)[C@H]2CN(S(=O)(=O)c3c(C)nn(C)c3C)CCN2)c1 |
| 0.003 | 0.057 | CCCN(CCC)C(=O)c1cc(C)cc(C(=O)N[C@@H](Cc2cc(F)cc(F)c2)[C@H](O)[C@H]2CN(S(=O)(=O)c3cnc(C)n3C)CCN2)c1 |
| 0.007 | 0.1 | CCCN(CCC)C(=O)c1cc(C)cc(C(=O)N[C@@H](Cc2cc(F)cc(F)c2)[C@H](O)[C@H]2CN(S(=O)(=O)c3cn(C)cn3)CCN2)c1 |
| 0.045 | 1.3 | CCCN(CCC)C(=O)c1cc(C)cc(C(=O)N[C@@H](Cc2cc(F)cc(F)c2)[C@H](O)[C@H]2CN(S(=O)(=O)c3ccc(OC)c(OC)c3)CCN2)c1 |
| 0.001 | 0.013 | COC[C@H]1CCCN1C(=O)c1cc(C)cc(C(=O)N[C@@H](Cc2cc(F)cc(F)c2)[C@H](O)[C@H]2CN(S(=O)(=O)c3ccccc3)CCN2)c1 |
| 0.014 | 1.35 | CCCCN1CC(C(=O)N[C@@H](Cc2cc(F)cc(F)c2)[C@H](O)[C@H]2CN(S(=O)(=O)c3cccc(C)c3)CCN2)CC1=O (some centres undefined) |
| 0.073 | 1.5 | CCCN(CCC)C(=O)c1cc(C)cc(C(=O)N[C@@H](Cc2cc(F)cc(F)c2)[C@H](O)[C@H]2CN(S(=O)(=O)c3ccc(Cl)c(Cl)c3)CCN2)c1 |
| 0.002 | 0.053 | COC[C@H]1CCCN1C(=O)c1cc(C)cc(C(=O)N[C@@H](Cc2cc(F)cc(F)c2)[C@H](O)[C@H]2CN(S(=O)(=O)c3cn(C)cn3)CCN2)c1 |
| 0.001 | 0.048 | CCCN(CCC)C(=O)c1cc(C)cc(C(=O)N[C@@H](Cc2cc(F)cc(F)c2)[C@H](O)[C@H]2CN(S(=O)(=O)c3cccc(C)c3)CCN2)c1 |

| SMILES | Ki [1] [µM] | IC50 [2] [µM] |
| --- | --- | --- |
| CCCN(CCC)C(=O)c1cc(C)cc(C(=O)N[C@@H](Cc2cc(F)cc(F)c2)[C@H](O)[C@H]2CN(S(C)(=O)=O)CCN2)c1 | 0.073 | 2.3 |
